For 18 molecules, Ki results are on record in US10590140B2, “Tetrahydropyrimidodiazepine and dihydropyridodiazepine compounds for treating pain and pain related conditions” (ESTEVE PHARMACEUTICALS, S.A., priority 2016, dated 2020).

In assay [1] the target is human norepinephrine transporter (NET) (Homo sapiens (Human), UniProt P23975). As to the kind of experiment: Binding assay to human norepinephrine transporter (NET) ([3H]-Nisoxetin). To be noted: Table 2, dual compounds; [3H]-Nisoxetin binding. In a few lines:
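NET-enriched membranes (5 μg) incubated with 5 nM [3H]-nisoxetin in 50 mM Tris-HCl, 120 mM NaCl, 5 mM KCl, pH 7.4, 60 min at 4 °C. Bound ligand separated by filtration on PEI-soaked GF/C and counted by scintillation; nonspecific binding defined with 1 μM competitor.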

Assay [2] has as its target human α2δ-1 subunit of Cav2.2 calcium channel (Homo sapiens (Human), UniProt P54289). The assay is described as follows: Binding assay to human α2δ-1 subunit of Cav2.2 calcium channel ([3H]-Gabapentin). The note with it: read-out: Ki (nM) α2δ-1. In a few lines: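 [3H]-gabapentin binding, 60 min at 27° C; nonspecific binding defined with 10 μM pregabalin. Terminated by filtration on PEI-presoaked GF/C filters, ice-cold 50 mM Tris-HCl pH 7.4 washes, then scintillation counting.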

Setting [3] is: Table 2, dual compounds, [3H]-Gabapentin binding.
Setting [4] is: binding to α2δ-1, [3H]-Gabapentin.

The structures appear in SMILES notation. Read-outs that look alike come from different tables or passages of the source.

human α2δ-1 subunit of Cav2.2 calcium channel, sequence (P54289 25-1103): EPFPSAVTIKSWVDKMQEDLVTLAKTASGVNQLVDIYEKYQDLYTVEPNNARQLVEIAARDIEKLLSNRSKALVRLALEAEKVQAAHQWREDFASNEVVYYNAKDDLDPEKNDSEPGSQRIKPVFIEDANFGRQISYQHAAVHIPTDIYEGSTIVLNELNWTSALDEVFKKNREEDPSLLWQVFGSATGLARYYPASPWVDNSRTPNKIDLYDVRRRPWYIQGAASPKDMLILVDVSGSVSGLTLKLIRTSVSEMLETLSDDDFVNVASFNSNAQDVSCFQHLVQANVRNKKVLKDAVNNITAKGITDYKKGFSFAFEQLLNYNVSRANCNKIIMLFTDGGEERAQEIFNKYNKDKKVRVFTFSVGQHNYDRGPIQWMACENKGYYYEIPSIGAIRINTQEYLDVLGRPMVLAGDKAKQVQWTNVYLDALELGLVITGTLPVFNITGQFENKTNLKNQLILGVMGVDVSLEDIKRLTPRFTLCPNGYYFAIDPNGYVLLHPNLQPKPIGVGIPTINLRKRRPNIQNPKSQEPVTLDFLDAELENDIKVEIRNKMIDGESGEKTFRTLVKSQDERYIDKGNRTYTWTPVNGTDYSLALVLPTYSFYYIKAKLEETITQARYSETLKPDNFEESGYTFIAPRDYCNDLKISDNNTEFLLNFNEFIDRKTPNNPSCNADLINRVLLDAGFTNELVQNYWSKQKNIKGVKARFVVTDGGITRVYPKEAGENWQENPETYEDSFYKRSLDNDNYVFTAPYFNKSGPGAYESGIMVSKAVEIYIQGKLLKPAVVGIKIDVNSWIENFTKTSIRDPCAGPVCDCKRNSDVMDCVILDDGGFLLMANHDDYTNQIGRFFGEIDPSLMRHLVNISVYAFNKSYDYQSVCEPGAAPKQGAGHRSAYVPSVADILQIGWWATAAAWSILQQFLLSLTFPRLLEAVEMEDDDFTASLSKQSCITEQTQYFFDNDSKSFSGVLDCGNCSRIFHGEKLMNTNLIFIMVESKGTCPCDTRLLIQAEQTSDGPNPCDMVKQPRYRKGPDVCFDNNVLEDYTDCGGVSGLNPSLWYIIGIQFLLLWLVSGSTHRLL
human norepinephrine transporter (NET), sequence (P23975 whole entry): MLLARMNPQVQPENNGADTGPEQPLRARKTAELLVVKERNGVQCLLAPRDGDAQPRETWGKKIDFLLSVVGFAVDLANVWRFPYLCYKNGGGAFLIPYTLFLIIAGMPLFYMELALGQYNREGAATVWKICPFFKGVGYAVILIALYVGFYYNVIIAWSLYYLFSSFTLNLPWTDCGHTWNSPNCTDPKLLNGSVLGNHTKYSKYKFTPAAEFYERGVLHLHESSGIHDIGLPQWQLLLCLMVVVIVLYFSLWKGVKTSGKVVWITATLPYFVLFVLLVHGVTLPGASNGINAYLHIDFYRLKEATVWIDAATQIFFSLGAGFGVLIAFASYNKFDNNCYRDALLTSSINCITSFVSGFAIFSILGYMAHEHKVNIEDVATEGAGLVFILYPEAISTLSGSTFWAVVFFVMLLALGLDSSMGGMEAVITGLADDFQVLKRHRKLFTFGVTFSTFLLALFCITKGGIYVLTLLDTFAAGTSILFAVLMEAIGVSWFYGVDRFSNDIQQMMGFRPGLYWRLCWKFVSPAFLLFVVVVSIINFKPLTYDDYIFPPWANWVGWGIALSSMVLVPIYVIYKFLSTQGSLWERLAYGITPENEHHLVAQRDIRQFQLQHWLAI

One may read the Ki as a measure of affinity in units of concentration, obtained from inhibition or displacement. Consider `CNCCC(Oc1cccc(CN2CCN(C)c3nc(SC)ncc3C2=O)c1)c1ccccc1` (stereo not drawn) [Example 366, 9-methyl-6-(3-(3-(methylamino)-1-phenylpropoxy)benzyl)-2-(methylthio)-6,7,8,9-tetrahydro-5H-pyrimido[4,5-e][1,4]diazepin-5-one], for which the figures for the Ki in assay [1], in assay [2] (setting [3]) and in assay [2] (setting [4]) were 500 to 1000 nM, greater than 3000 nM and greater than 3000 nM, respectively.

Turning to `CNCCC(OCc1cccc(CN2CCN(C)c3nc(SC)ncc3C2=O)c1)c1ccccc1` (stereo not drawn) [Example 367, 9-methyl-6-(3-((3-(methylamino)-1-phenylpropoxy)methyl)benzyl)-2-(methylthio)-6,7,8,9-tetrahydro-5H-pyrimido[4,5-e][1,4]diazepin-5-one], the Ki was 100 to 500 nM in assay [1], greater than 3000 nM in assay [2] (setting [3]) and greater than 3000 nM in assay [2] (setting [4]).

Take `CNCCC(OCc1ccc(CN2CCN(C)c3nc(SC)ncc3C2=O)cc1)c1ccccc1` (stereo not drawn) [Example 368, 9-methyl-6-(4-((3-(methylamino)-1-phenylpropoxy)methyl)benzyl)-2-(methylthio)-6,7,8,9-tetrahydro-5H-pyrimido[4,5-e][1,4]diazepin-5-one]: the Ki in assay [1] was 100 to 500 nM; in assay [2] (setting [3]), greater than 3000 nM; in assay [2] (setting [4]) it was greater than 3000 nM.

For `CNCCC(Oc1ccc(CN2CCN(C)c3nc(SC)ncc3C2=O)cc1)c1ccccc1` (stereo not drawn) [Example 369, 9-methyl-6-(4-(3-(methylamino)-1-phenylpropoxy)benzyl)-2-(methylthio)-6,7,8,9-tetrahydro-5H-pyrimido[4,5-e][1,4]diazepin-5-one], the values for the Ki in assay [1], in assay [2] (setting [3]) and in assay [2] (setting [4]) were less than 100 nM, 500 to 3000 nM and 500 to 3000 nM, respectively.

For `CNCC(OCc1cccc(CN2CCN(C)c3nc(SC)ncc3C2=O)c1)c1ccccc1` (stereo not drawn) [Example 372, 9-methyl-6-(3-((2-(methylamino)-1-phenylethoxy)methyl)benzyl)-2-(methylthio)-6,7,8,9-tetrahydro-5H-pyrimido[4,5-e][1,4]diazepin-5-one], the values for the inhibitory constant (Ki) in assay [1], in assay [2] (setting [3]) and in assay [2] (setting [4]) were 100 to 500 nM, greater than 3000 nM and greater than 3000 nM, respectively.

Turning to `CNCC(OCc1ccc(CN2CCN(C)c3nc(SC)ncc3C2=O)cc1)c1ccccc1` (stereo not drawn) [Example 374, 9-methyl-6-(4-((2-(methylamino)-1-phenylethoxy)methyl)benzyl)-2-(methylthio)-6,7,8,9-tetrahydro-5H-pyrimido[4,5-e][1,4]diazepin-5-one], the Ki in assay [1] was 100 to 500 nM; in assay [2] (setting [3]), greater than 3000 nM; in assay [2] (setting [4]) it was greater than 3000 nM.

In the case of `CNCCC(Oc1ccc(CN2CCN(C)c3ccncc3C2=O)cc1)c1cccs1` (stereo not drawn) [Example 381, 1-methyl-4-(4-(3-(methylamino)-1-(thiophen-2-yl)propoxy)benzyl)-1,2,3,4-tetrahydro-5H-pyrido[4,3-e][1,4]diazepin-5-one], the Ki in assay [1], in assay [2] (setting [3]) and in assay [2] (setting [4]) was 100 to 500 nM each time.

For `CNCC[C@H](Oc1ccc(CN2CCN(C)c3ccncc3C2=O)cc1)c1cccs1` [Example 382, (S)-1-methyl-4-(4-(3-(methylamino)-1-(thiophen-2-yl)propoxy)benzyl)-1,2,3,4-tetrahydro-5H-pyrido[4,3-e][1,4]diazepin-5-one], the Ki in assay [1], in assay [2] (setting [3]) and in assay [2] (setting [4]) was 100 to 500 nM in each case.

For the molecule `CCNc1cc2c(cn1)C(=O)N(Cc1ccc(O[C@@H](CCNC)c3cccs3)cc1)CCN2C` [Example 383, (S)-8-(ethylamino)-1-methyl-4-(4-(3-(methylamino)-1-(thiophen-2-yl)propoxy)benzyl)-1,2,3,4-tetrahydro-5H-pyrido[4,3-e][1,4]diazepin-5-one], the Ki in assay [1], in assay [2] (setting [3]) and in assay [2] (setting [4]) was 100 to 500 nM throughout.

With `CNCC[C@H](Oc1ccc(CN2CCN(C)c3cc(OC)ncc3C2=O)cc1)c1cccs1` [Example 385, (S)-8-methoxy-1-methyl-4-(4-(3-(methylamino)-1-(thiophen-2-yl)propoxy)benzyl)-1,2,3,4-tetrahydro-5H-pyrido[4,3-e][1,4]diazepin-5-one], the inhibition constant Ki in assay [1], in assay [2] (setting [3]) and in assay [2] (setting [4]) was 100 to 500 nM each time.

Regarding `CNCCC(Oc1ccc(CN2CCN(C)c3nc(OC)ncc3C2=O)cc1)c1sccc1C` (stereo not drawn) [Example 388, 2-methoxy-9-methyl-6-(4-(3-(methylamino)-1-(3-methylthiophen-2-yl)propoxy)benzyl)-6,7,8,9-tetrahydro-5H-pyrimido[4,5-e][1,4]diazepin-5-one], the inhibition constant (Ki) in assay [1] was less than 100 nM; in assay [2] (setting [3]), greater than 3000 nM; in assay [2] (setting [4]) it was greater than 3000 nM.

As to `CCNc1ncc2c(n1)N(C)CCN(Cc1ccc(COC(CCNC)c3ccccc3)cc1)C2=O` (stereo not drawn) [Example 405, 2-(ethylamino)-9-methyl-6-(4-((3-(methylamino)-1-phenylpropoxy)methyl)benzyl)-6,7,8,9-tetrahydro-5H-pyrimido[4,5-e][1,4]diazepin-5-one], the figures for the Ki in assay [1], in assay [2] (setting [3]) and in assay [2] (setting [4]) were 100 to 500 nM, greater than 3000 nM and greater than 3000 nM, respectively.

With `CCNc1ncc2c(n1)N(C)CCN(Cc1cccc(COC(CCNC)c3ccccc3)c1)C2=O` (stereo not drawn) [Example 406, 2-(ethylamino)-9-methyl-6-(3-((3-(methylamino)-1-phenylpropoxy)methyl)benzyl)-6,7,8,9-tetrahydro-5H-pyrimido[4,5-e][1,4]diazepin-5-one], the Ki is 100 to 500 nM in assay [1], greater than 3000 nM in assay [2] (setting [3]) and greater than 3000 nM in assay [2] (setting [4]).

For `CCNc1ncc2c(n1)N(C)CCN(Cc1ccc(OC(CCNC)c3ccccc3)cc1)C2=O` (stereo not drawn) [Example 408, 2-(ethylamino)-9-methyl-6-(4-(3-(methylamino)-1-phenylpropoxy)benzyl)-6,7,8,9-tetrahydro-5H-pyrimido[4,5-e][1,4]diazepin-5-one], the Ki was less than 100 nM in assay [1], 500 to 3000 nM in assay [2] (setting [3]) and 500 to 3000 nM in assay [2] (setting [4]).

As to `CCNc1ncc2c(n1)N(C)CCN(Cc1cccc(COC(CNC)c3ccccc3)c1)C2=O` (stereo not drawn) [Example 411, 2-(ethylamino)-9-methyl-6-(3-((2-(methylamino)-1-phenylethoxy)methyl)benzyl)-6,7,8,9-tetrahydro-5H-pyrimido[4,5-e][1,4]diazepin-5-one], the Ki was 500 to 1000 nM in assay [1], greater than 3000 nM in assay [2] (setting [3]) and greater than 3000 nM in assay [2] (setting [4]).

With `CCNc1ncc2c(n1)N(C)CCN(Cc1ccc(COC(CNC)c3ccccc3)cc1)C2=O` (stereo not drawn) [Example 413, 2-(ethylamino)-9-methyl-6-(4-((2-(methylamino)-1-phenylethoxy)methyl)benzyl)-6,7,8,9-tetrahydro-5H-pyrimido[4,5-e][1,4]diazepin-5-one], the Ki in assay [1] lay within 100 to 500 nM; in assay [2] (setting [3]) it was 500 to 3000 nM; in assay [2] (setting [4]), 500 to 3000 nM.

Turning to `CCNc1ncc2c(n1)N(C)CCN(Cc1ccc(O[C@@H](CCNC)c3ccccc3)cc1)C2=O` [Example 414, (S)-2-(ethylamino)-9-methyl-6-(4-(3-(methylamino)-1-phenylpropoxy)benzyl)-6,7,8,9-tetrahydro-5H-pyrimido[4,5-e][1,4]diazepin-5-one], the Ki is less than 100 nM in assay [1], 500 to 3000 nM in assay [2] (setting [3]) and 500 to 3000 nM in assay [2] (setting [4]).

Consider `CCNc1ncc2c(n1)N(C)CCN(Cc1ccc(O[C@H](CCNC)c3ccccc3)cc1)C2=O` [Example 415, (R)-2-(ethylamino)-9-methyl-6-(4-(3-(methylamino)-1-phenylpropoxy)benzyl)-6,7,8,9-tetrahydro-5H-pyrimido[4,5-e][1,4]diazepin-5-one], for which the figures for the Ki in assay [1], in assay [2] (setting [3]) and in assay [2] (setting [4]) were 100 to 500 nM, 500 to 3000 nM and 500 to 3000 nM, respectively.
